This data set addresses HSD17B13. Particulars: ASO, HepaRG.

After the bases stand the sugars from the 5' end (letter, count) and the backbone: PS all phosphorothioate, else s phosphorothioate and o phosphodiester by linkage. Methylation of C is not given here. e = 2'-O-(2-methoxyethyl) (MOE); k = constrained ethyl (cEt); d = 2'-deoxy (DNA); m = 2'-O-methyl

Regarding GGGACCAATATAATCC (sugars k3 d10 k3, PS), where the note is “1 µM”, the target mRNA inhibition was determined as 31%.

Turning to GGGAGGTAGCTTTTGT (sugars k3 d10 k3, PS), under “1 µM”, the target mRNA inhibition amounted to 10%.

Consider GGGATAAACTGTTCTT (sugars k3 d10 k3, PS), for which, under “1 µM”, the target mRNA inhibition came to 47%.

GGGCTAGAACTTAAAA (sugars k3 d10 k3, PS): the target mRNA inhibition (1 µM) is 35%.

Regarding GGGTGGTAACGGTGAT (sugars k3 d10 k3, PS), where the note is “1 µM”, the target mRNA inhibition was 46%.

On to GGTCACCTTTCATAAT (sugars k3 d10 k3, PS), for which the target mRNA inhibition (1 µM) was found to be 57%.

Consider “GGTCACCTTTCATAAT (sugars kkdddddddddkekek, PS)”, for which, where the note is “1 µM”, the target mRNA inhibition is 52%.

Regarding GGTGAACCCAGTATTC (sugars k3 d10 k3, PS), for the setting “1 µM”, the target mRNA inhibition was determined as 7%.

Consider “GGTGGTAACGGTGATC (sugars kkdddddddddkekek, PS)”, for which, where the note is “1 µM”, the target mRNA inhibition came to 39%.

As to GGTTGAGATAAAGCTG (sugars k3 d10 k3, PS), the target mRNA inhibition reads like this: (0.02 µM) 0%; (0.078 µM) 0%; (0.313 µM) 37%; (1 µM) 76%; (1.25 µM) 65%; (5 µM) 86%.

On to “GGTTGAGATAAAGCTG (sugars kkdddddddddkekek, PS)”, for which the target mRNA inhibition (1 µM) was found to be 60%.

GTAAACTAAAGTACTT (sugars k3 d10 k3, PS) registered a target mRNA inhibition (1 µM) of 0%.

As for GTAAACTGTATGCCTC (sugars k3 d10 k3, PS), the target mRNA inhibition reads like this: (0.02 µM) 5%; (0.078 µM) 30%; (0.313 µM) 43%; (1 µM) 74%; (1.25 µM) 78%; (5 µM) 86%.

The sequence GTAAAGTTTGTTAGAG (sugars k3 d10 k3, PS) returned a target mRNA inhibition (1 µM) of 54%.

Regarding “GTAACGGTGATCAAAT (sugars k3 d1 m1 d8 k3, PS)”, under “1 µM”, the target mRNA inhibition was found to be 21%.

“GTAACGGTGATCAAAT (sugars k3 d9 k3 e1, PS)”: the target mRNA inhibition (1 µM) came to 32%.

The sequence GTAAGAGTCAGTATCC (sugars k3 d10 k3, PS) displayed a target mRNA inhibition (1 µM) of 47%.

As for “GTAATCACAAGTAAGG (sugars kkdddddddddkekek, PS)”, the target mRNA inhibition is 0% (0.02 µM); 2% (0.078 µM); 35% (0.313 µM); 72% (1 µM); 49% (1.25 µM); 70% (5 µM).

The sequence GTAATGGTAAACTGTA (sugars k3 d10 k3, PS) gave a target mRNA inhibition (1 µM) of 70%.

For the setting “1 µM”, GTAATTAATCTTGTTC (sugars k3 d10 k3, PS) came in with a target mRNA inhibition of 52%.

For the setting “1 µM”, GTAATTACTTCTGATG (sugars k3 d10 k3, PS) returned a target mRNA inhibition of 41%.

Sequence GTAATTCTAAACTAGT (sugars k3 d10 k3, PS) gave a target mRNA inhibition (1 µM) of 39%.

GTAATTGCATCTGCTC (sugars k3 d10 k3, PS) returned a target mRNA inhibition (1 µM) of 51%.

Turning to GTAATTTTCAGATCCC (sugars k3 d10 k3, PS), the target mRNA inhibition was 24% (0.02 µM); 43% (0.078 µM); 69% (0.313 µM); 82% (1 µM); 88% (1.25 µM); 88% (5 µM).

The sequence “GTAAUCACAAGTAAGG (sugars k3 d1 m1 d8 k3, PS)” returned a target mRNA inhibition (1 µM) of 20%.

In the case of GTACACGAAGCCTGAA (sugars k3 d10 k3, PS), the target mRNA inhibition (1 µM) stood at 42%.

As for GTAGATGGTAAGTCAA (sugars k3 d10 k3, PS), the target mRNA inhibition was 20% (0.02 µM); 35% (0.078 µM); 55% (0.313 µM); 86% (1 µM); 84% (1.25 µM); 88% (5 µM).

GTAGTCTGCCTGCCTA (sugars k3 d10 k3, PS): for the setting “1 µM”, the target mRNA inhibition is 68%.

“GTATAGTTATCTTCTC (sugars kkdddddddddkekek, PS)” returned a target mRNA inhibition (1 µM) of 49%.

On to GTATCTTAAGAGAAGG (sugars k3 d10 k3, PS), for which the target mRNA inhibition (1 µM) is 30%.

In the case of GTATTGAGATGACAGT (sugars k3 d10 k3, PS), the target mRNA inhibition by setting is: (0.02 µM) 0%; (0.078 µM) 0%; (0.313 µM) 3%; (1 µM) 68%; (1.25 µM) 47%; (5 µM) 73%.

Sequence GTATTTGAGATTCACC (sugars k3 d10 k3, PS) had a target mRNA inhibition (1 µM) of 41%.

GTATTTGGGTGTTCTG (sugars k3 d10 k3, PS) gave a target mRNA inhibition (1 µM) of 36%.

As to “GTCACCTTTCATAATG (sugars k3 d1 m1 d8 k3, PS)”, where the note is “1 µM”, the target mRNA inhibition worked out at 40%.

Consider GTCAGACCTCTGTGAA (sugars k3 d10 k3, PS), for which the target mRNA inhibition (1 µM) was determined as 34%.

GTCATAAAGGTGGGAT (sugars k3 d10 k3, PS) registered a target mRNA inhibition (1 µM) of 28%.

Regarding GTCCACCTTTAAATGG (sugars k3 d10 k3, PS), the target mRNA inhibition (1 µM) was 33%.

For the sequence GTCCATGCAAAAGCAT (sugars k3 d10 k3, PS), the target mRNA inhibition (1 µM) is 62%.

Where the note is “1 µM”, “GTCGGTCACCTTTCAT (sugars kkdddddddddkekek, PS)” came in with a target mRNA inhibition of 57%.

The sequence “GTCTAAACATCTCTGG (sugars k3 d1 m1 d8 k3, PS)” registered a target mRNA inhibition (1 µM) of 47%.

Under “1 µM”, GTCTAAATTATTGCCT (sugars k3 d10 k3, PS) came in with a target mRNA inhibition of 45%.

As for GTCTACCTCTAAGTTA (sugars k3 d10 k3, PS), the target mRNA inhibition (1 µM) was 3%.

For the setting “1 µM”, GTCTCCAATACAGGCC (sugars k3 d10 k3, PS) came in with a target mRNA inhibition of 47%.

Turning to GTCTTAAACCTTCCCT (sugars k3 d10 k3, PS), under “1 µM”, the target mRNA inhibition was found to be 63%.

“GTCTTAAACCTTCCCT (sugars kkdddddddddkekek, PS)”: the target mRNA inhibition (1 µM) came out at 28%.

As for “GTCTUGATGTAGTGGG (sugars k3 d1 m1 d8 k3, PS)”, the target mRNA inhibition (1 µM) was 63%.

GTGAAAGCCAACAGCG (sugars k3 d10 k3, PS): for the setting “1 µM”, the target mRNA inhibition was 62%.

Under “1 µM”, GTGAACCCAGTATTCA (sugars k3 d10 k3, PS) had a target mRNA inhibition of 1%.

Consider GTGCATCTTAAGATAC (sugars k3 d10 k3, PS), for which the target mRNA inhibition (1 µM) came out at 47%.

“GTGCCAAACCAATGTT (sugars k3 d1 m1 d8 k3, PS)” displayed a target mRNA inhibition (1 µM) of 30%.

As for GTGGCATGGCTACAGA (sugars k3 d10 k3, PS), the target mRNA inhibition (1 µM) was 56%.

With “GTGGCATGGCTACAGA (sugars kkdddddddddkekek, PS)”, the target mRNA inhibition (1 µM) came out at 59%.

Turning to GTGGGAGTCGGATTAT (sugars k3 d10 k3, PS), the target mRNA inhibition (1 µM) worked out at 37%.

In the case of “GTGTAAGCTGAGAGTT (sugars k3 d1 m1 d8 k3, PS)”, for the setting “1 µM”, the target mRNA inhibition worked out at 55%.

“GTGTAAGCTGAGAGTT (sugars k3 d9 k3 e1, PS)” registered a target mRNA inhibition (1 µM) of 45%.

Turning to GTGTAAGCTGAGAGTT (sugars k3 d10 k3, PS), the target mRNA inhibition (1 µM) turned out to be 60%.

Where the note is “1 µM”, GTGTAGAATTGTCTGT (sugars k3 d10 k3, PS) displayed a target mRNA inhibition of 42%.

Regarding GTGTTCTTGTTGATAT (sugars k3 d10 k3, PS), the target mRNA inhibition by setting is: (0.02 µM) 13%; (0.078 µM) 25%; (0.313 µM) 59%; (1 µM) 81%; (1.25 µM) 80%; (5 µM) 93%.

In turn, “GTGTTCTTGTTGATAT (sugars kkdddddddddkekek, PS)” gave a target mRNA inhibition (1 µM) of 63%.

The sequence GTTAAGCAGATGGCTT (sugars k3 d10 k3, PS) gave a target mRNA inhibition (1 µM) of 41%.

GTTACCAGAGCATTCA (sugars k3 d10 k3, PS): the target mRNA inhibition came out at 19% (0.02 µM); 36% (0.078 µM); 63% (0.313 µM); 73% (1 µM); 74% (1.25 µM); 92% (5 µM).

In turn, GTTAGCAGCTAAAATC (sugars k3 d10 k3, PS) came in with a target mRNA inhibition (1 µM) of 45%.

Consider GTTAGCTAAGGGAGAG (sugars k3 d10 k3, PS), for which the target mRNA inhibition (1 µM) worked out at 18%.

For the sequence GTTATAAGTTTCATGT (sugars k3 d10 k3, PS), the target mRNA inhibition (1 µM) stood at 21%.

In turn, “GTTATTCTCTTGACAA (sugars k3 d9 k3 e1, PS)” came in with a target mRNA inhibition (1 µM) of 35%.

In turn, GTTCAAATTGGATGCA (sugars k3 d10 k3, PS) gave a target mRNA inhibition (1 µM) of 68%.

Regarding GTTCATTCGAATTTCT (sugars k3 d10 k3, PS), the target mRNA inhibition amounted to 0% (0.02 µM); 19% (0.078 µM); 60% (0.313 µM); 76% (1 µM); 87% (1.25 µM); 88% (5 µM).

For the sequence GTTCTTAATTACATTC (sugars k3 d10 k3, PS), under “1 µM”, the target mRNA inhibition was found to be 64%.

For the setting “1 µM”, GTTGACTAATGCAAGA (sugars k3 d10 k3, PS) registered a target mRNA inhibition of 59%.

For the sequence GTTGATAAAATAGGGT (sugars k3 d10 k3, PS), the target mRNA inhibition (1 µM) turned out to be 42%.

“GTTGATATTCTGTGGC (sugars k3 d1 m1 d8 k3, PS)”: where the note is “1 µM”, the target mRNA inhibition worked out at 68%.

As to “GTTGATATTCTGTGGC (sugars kkdddddddddkekek, PS)”, the target mRNA inhibition (1 µM) turned out to be 69%.

As to GTTGATATTTCCATCT (sugars k3 d10 k3, PS), the target mRNA inhibition (1 µM) was 55%.

In the case of GTTGGAAGATGTATAC (sugars k3 d10 k3, PS), the target mRNA inhibition (1 µM) was 53%.

The sequence GTTTAGATTGCATAAG (sugars k3 d10 k3, PS) returned a target mRNA inhibition (1 µM) of 46%.

Values taken from the OligoGym collection.
